Source: the supplement of paper PMC10307832

Experiments:
Assay in all cases: relative viability (nuclei count vs DMSO), 5 days (fraction); higher = more cells survive
[1] = system: UMC-11
Summary of the method: (§1)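 Each reported value is a median over duplicate plates. It expresses relative viability: treated-well nuclei count divided by vehicle-well nuclei count. Lung cancer cell lines in 1536-well plates were dosed by pin tool a day after seeding, alone with one drug or with a fixed anchor-drug dose plus five library-drug doses (not always all listed) in √10 steps, and nuclei were counted after 5 days.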

[2] = system: LU99A
Summary of the method: as §1

[3] = system: COR-L23
Summary of the method: as §1

[4] = system: HOP-62
Summary of the method: as §1

[5] = system: NCI-H1355
Summary of the method: as §1

[6] = system: NCI-H838
Summary of the method: as §1

[7] = system: ABC-1
Summary of the method: as §1

[8] = system: NCI-H1993
Summary of the method: as §1

[9] = system: LC-2-ad
Summary of the method: as §1

[10] = system: HARA
Summary of the method: as §1

[11] = system: NCI-H2347
Summary of the method: as §1

[12] = system: NCI-H650
Summary of the method: as §1

[13] = system: NCI-H2126
Summary of the method: as §1

[14] = system: PC-14
Summary of the method: as §1

[15] = system: NCI-H1651
Summary of the method: as §1

[16] = system: NCI-H2023
Summary of the method: as §1

[17] = system: HCC-15
Summary of the method: as §1

[18] = system: NCI-H1915
Summary of the method: as §1

[19] = system: HCC-44
Summary of the method: as §1

[20] = system: SW 1573
Summary of the method: as §1

[21] = system: EPLC-272H
Summary of the method: as §1

[22] = system: NCI-H2085
Summary of the method: as §1

In the case of `COc1cc2nccc(Oc3ccc(NC(=O)Nc4cc(C)on4)c(Cl)c3)c2cc1OC` [Tivozanib] + O=C(CCCCCCC(=O)Nc1ccccc1)NO [Vorinostat] (partner 1 µM), the relative viability ([1]; first compound 0.005 µM) is reported as 0.404, the relative viability ([1]; first compound 0.01581 µM) is reported as 0.36 and the relative viability ([1]; first compound 0.05 µM) is reported as 0.349. It also gave a relative viability ([1]; first compound 0.1581 µM) of 0.328, a relative viability ([1]; first compound 0.5 µM) of 0.329 and a relative viability ([2]; first compound 0.005 µM) of 0.43. The relative viability ([2]; first compound 0.01581 µM) was 0.443, the relative viability ([2]; first compound 0.05 µM) was 0.526 and the relative viability ([2]; first compound 0.1581 µM) was 0.358. For the same compound, the relative viability ([2]; first compound 0.5 µM) was 0.402, the relative viability ([3]; first compound 0.005 µM) was 0.444 and the relative viability ([3]; first compound 0.01581 µM) was 0.454. For the same compound, the relative viability ([3]; first compound 0.05 µM) was 0.607, the relative viability ([3]; first compound 0.1581 µM) was 0.33 and the relative viability ([3]; first compound 0.5 µM) was 0.311. It also gave a relative viability ([4]; first compound 0.005 µM) of 0.633, a relative viability ([4]; first compound 0.01581 µM) of 0.638 and a relative viability ([4]; first compound 0.05 µM) of 0.652. For the same compound, the relative viability ([4]; first compound 0.1581 µM) was 0.376, the relative viability ([4]; first compound 0.5 µM) was 0.434 and the relative viability ([5]; first compound 0.005 µM) was 0.58. The relative viability ([5]; first compound 0.01581 µM) was 0.612, the relative viability ([5]; first compound 0.05 µM) was 0.68 and the relative viability ([5]; first compound 0.1581 µM) was 0.437. It also gave a relative viability ([5]; first compound 0.5 µM) of 0.588, a relative viability ([6]; first compound 0.005 µM) of 0.75 and a relative viability ([6]; first compound 0.01581 µM) of 0.792. The relative viability ([6]; first compound 0.05 µM) was 0.802, the relative viability ([6]; first compound 0.1581 µM) was 0.746 and the relative viability ([6]; first compound 0.5 µM) was 0.696. The relative viability ([7]; first compound 0.005 µM) was 0.694, the relative viability ([7]; first compound 0.01581 µM) was 1.11 and the relative viability ([7]; first compound 0.05 µM) was 1.3. The relative viability ([7]; first compound 0.1581 µM) was 0.926, the relative viability ([7]; first compound 0.5 µM) was 0.842 and the relative viability ([8]; first compound 0.005 µM) was 0.692. It also gave a relative viability ([8]; first compound 0.01581 µM) of 0.579, a relative viability ([8]; first compound 0.05 µM) of 0.965 and a relative viability ([8]; first compound 0.1581 µM) of 0.618. For the same compound, the relative viability ([8]; first compound 0.5 µM) was 0.585, the relative viability ([9]; first compound 0.005 µM) was 0.704 and the relative viability ([9]; first compound 0.01581 µM) was 0.734. It also gave a relative viability ([9]; first compound 0.05 µM) of 0.694, a relative viability ([9]; first compound 0.1581 µM) of 0.592 and a relative viability ([9]; first compound 0.5 µM) of 0.34. For the same compound, the relative viability ([10]; first compound 0.005 µM) was 0.422, the relative viability ([10]; first compound 0.01581 µM) was 0.456 and the relative viability ([10]; first compound 0.05 µM) was 0.594. The relative viability ([10]; first compound 0.1581 µM) was 0.563, the relative viability ([10]; first compound 0.5 µM) was 0.507 and the relative viability ([11]; first compound 0.005 µM) was 0.612. It also gave a relative viability ([11]; first compound 0.01581 µM) of 0.577, a relative viability ([11]; first compound 0.05 µM) of 0.61 and a relative viability ([11]; first compound 0.1581 µM) of 0.797. The relative viability ([11]; first compound 0.5 µM) was 0.517, the relative viability ([12]; first compound 0.005 µM) was 0.348 and the relative viability ([12]; first compound 0.01581 µM) was 0.379. It also gave a relative viability ([12]; first compound 0.05 µM) of 0.414, a relative viability ([12]; first compound 0.1581 µM) of 0.29 and a relative viability ([12]; first compound 0.5 µM) of 0.296. The relative viability ([13]; first compound 0.005 µM) was 0.795, the relative viability ([13]; first compound 0.01581 µM) was 0.822 and the relative viability ([13]; first compound 0.05 µM) was 0.82. The relative viability ([13]; first compound 0.1581 µM) was 0.482, the relative viability ([13]; first compound 0.5 µM) was 0.729 and the relative viability ([14]; first compound 0.005 µM) was 0.728. For the same compound, the relative viability ([14]; first compound 0.01581 µM) was 0.792, the relative viability ([14]; first compound 0.05 µM) was 0.711 and the relative viability ([14]; first compound 0.1581 µM) was 0.695. For the same compound, the relative viability ([14]; first compound 0.5 µM) was 0.58, the relative viability ([15]; first compound 0.005 µM) was 0.444 and the relative viability ([15]; first compound 0.01581 µM) was 0.53. The relative viability ([15]; first compound 0.05 µM) was 0.619, the relative viability ([15]; first compound 0.1581 µM) was 0.519 and the relative viability ([15]; first compound 0.5 µM) was 0.471. It also gave a relative viability ([16]; first compound 0.005 µM) of 0.488, a relative viability ([16]; first compound 0.01581 µM) of 0.694 and a relative viability ([16]; first compound 0.05 µM) of 0.703. It also gave a relative viability ([16]; first compound 0.1581 µM) of 0.48, a relative viability ([16]; first compound 0.5 µM) of 0.441 and a relative viability ([17]; first compound 0.005 µM) of 0.797. For the same compound, the relative viability ([17]; first compound 0.01581 µM) was 0.896, the relative viability ([17]; first compound 0.05 µM) was 0.857 and the relative viability ([17]; first compound 0.1581 µM) was 0.863. It also gave a relative viability ([17]; first compound 0.5 µM) of 0.886, a relative viability ([18]; first compound 0.005 µM) of 0.488 and a relative viability ([18]; first compound 0.01581 µM) of 0.503. It also gave a relative viability ([18]; first compound 0.05 µM) of 0.567, a relative viability ([18]; first compound 0.1581 µM) of 0.391 and a relative viability ([18]; first compound 0.5 µM) of 0.399. It also gave a relative viability ([19]; first compound 0.005 µM) of 1.03, a relative viability ([19]; first compound 0.01581 µM) of 1.09 and a relative viability ([19]; first compound 0.05 µM) of 1.1. It also gave a relative viability ([19]; first compound 0.1581 µM) of 1.17, a relative viability ([19]; first compound 0.5 µM) of 1.02 and a relative viability ([20]; first compound 0.005 µM) of 0.614. The relative viability ([20]; first compound 0.01581 µM) was 0.935, the relative viability ([20]; first compound 0.05 µM) was 0.677 and the relative viability ([20]; first compound 0.1581 µM) was 0.506. The relative viability ([20]; first compound 0.5 µM) was 0.281, the relative viability ([21]; first compound 0.005 µM) was 0.452 and the relative viability ([21]; first compound 0.01581 µM) was 0.617. The relative viability ([21]; first compound 0.05 µM) was 0.385, the relative viability ([21]; first compound 0.1581 µM) was 0.435 and the relative viability ([21]; first compound 0.5 µM) was 0.281. For the same compound, the relative viability ([22]; first compound 0.005 µM) was 0.754, the relative viability ([22]; first compound 0.01581 µM) was 0.796 and the relative viability ([22]; first compound 0.05 µM) was 0.825. The relative viability ([22]; first compound 0.1581 µM) was 0.709 and the relative viability ([22]; first compound 0.5 µM) was 0.786.
